Format in all cases: cell-based
Assay [1] concerns normal murine embryonic fibroblast cell line (BALB/3T3). In words: Antiproliferative SRB assay, 72 h, normal cells BALB/3T3. The conditions noted are these: BALB/3T3, 72 h, mean ± SD. From the text: (§1) The BALB/3T3 cell line was purchased from the American Type Culture Collection (ATCC, Manassas, VA, USA), A549 and MCF-7 cell lines—from European Collection of Authenticated Cell Cultures (Salisbury, UK). The LoVo cell line was purchased from the American Type Culture Collection (ATCC, Manassas, VA, USA), and LoVo/DX by courtesy of Prof. E. Borowski (Technical University of Gdańsk, Gdańsk, Poland). All the cell lines are maintained in the Institute of Immunology and Experimental Therapy (IIET), Wroclaw, Poland. The human lung adenocarcinoma cell line was cultured in a mixture of OptiMEM and RPMI 1640 (1:1) medium (IIET, Wroclaw, Poland), supplemented with 5% foetal bovine serum (GE Healthcare, Logan UT, USA) and 2 mM L-glutamine (Sigma-Aldrich, Merck KGaA, Saint Louis, MO, USA). Human breast adenocarcinoma cell line was cultured in mixture of Eagle’s medium (IIET, Wroclaw, Poland), supplemented with 10% fetal bovine serum, 2 mM L-glutamine, 8 μg/mL insulin, and 1% amino-acids (Sigma-Aldrich, Merck KGaA, Saint Louis, MO, USA). […] Murine embryonic fibroblast cells were cultured in Dulbecco medium (Life Technologies Limited, Paisley, UK), supplemented with 10% foetal bovine serum (GE Healthcare, Logan, UT, USA) and 2 mM glutamine (Sigma-Aldrich, Merck KGaA, Saint Louis, MO, USA). All culture media contained antibiotics: 100 U/mL penicillin and 100 μg/mL streptomycin (Polfa–Tarchomin, Warsaw, Poland). All cell lines were cultured during the entire experiment in a humid atmosphere at 37 °C and 5% CO2. […] The procedure was repeated every year or in the case of less frequently used lines: after thawing.
(§2) Twenty-four h before adding the tested compounds, all cell lines were seeded in 96-well plates (Sarstedt, Nümbrecht, Germany) in appropriate media with 10^4 cells per well. All cell lines were exposed to each tested agent at four different concentrations in the range 100–0.01 μg/mL for 72 h. […] Additionally, all cell lines were exposed to DMSO (solvent used for tested compounds) (POCh, Gliwice, Poland) at concentrations corresponding to these present in tested agents’ dilutions. After 72 h sulforhodamine B assay (SRB) was performed.
(§3) After 72 h of incubation with the tested compounds, cells were fixed in situ by gently adding 50 μL per well of cold 50% trichloroacetic acid TCA (POCh, Gliwice, Poland) and were incubated at 4 °C for one hour. Following, wells were washed four times with water and air dried. Next, 50 μL of 0.1% solution of sulforhodamine B (Sigma-Aldrich, Merck KGaA, Saint Louis, MO, USA) in 1% acetic acid (POCh, Gliwice, Poland) were added to each well and plates were incubated at room temperature for 0.5 h. After incubation time, unbound dye was removed by washing plates four times with 1% acetic acid whereas stain bound to cells was solubilized with 10 mM Tris base (Sigma-Aldrich, Merck KGaA, Saint Louis, MO, USA). Absorbance of each solution was read at Synergy H4 Hybrid Multi-Mode Microplate Reader (BioTek Instruments, Inc., Winooski, VT, USA) at the 540 nm wavelength.
(§4) IC50 values were calculated in Cheburator 0.4, Dmitry Nevozhay software (version 1.2.0 software by Dmitry Nevozhay, 2004–2014, http://www.cheburator.nevozhay.com, freely available) for each experiment. Compounds at each concentration were tested in triplicates in single experiment and each experiment was repeated at least three times independently. The Resistance Index (RI) was defined as the ratio of IC50 for a given compound calculated for resistant cell line to that measured for its parental drug sensitive cell line (Table 1).
In general terms: The SRB assay estimates cell density from bound dye.

The subject of assay [2] is human lung adenocarcinoma (A549). In words: cells. The conditions noted are these: for IC50: A549, 72 h, read-out: IC50 A549; for SI A549: SI = IC50 BALB/3T3 / IC50 A549.
Source text: as §1, §2, §3, §4

For assay [3], the system named is human colon adenocarcinoma cell line (LoVo). In words: cells. The conditions noted are these: for IC50: LoVo, 72 h, read-out: IC50 LoVo; for SI LoVo: SI = IC50 BALB/3T3 / IC50 LoVo.
Source text: as §1, §2, §3, §4

The subject of assay [4] is doxorubicin-resistant human colon adenocarcinoma subline (LoVo/DX). In words: cells. The following applies: for IC50: LoVo/DX, 72 h, read-out: IC50 LoVo/DX; for RI (resistance index): RI = IC50 LoVo/DX / IC50 LoVo; for SI LoVo/DX: SI = IC50 BALB/3T3 / IC50 LoVo/DX.
Source text: as §1, §2, §3, §4

In assay [5] the test system is human breast adenocarcinoma (MCF-7). In words: cells. The conditions noted are these: for IC50: read-out: IC50 MCF-7; for SI MCF-7: SI = IC50 BALB/3T3 / IC50 MCF-7.
Source text: as §1, §2, §3, §4

The source of these data is PMC6262455 (Cells, 2018).

The structures appear in SMILES notation. Read-outs that look alike come from different tables or passages of the source.

For `CCCOC(=O)N[C@H]1CCc2c(Br)c(OC)c(OC)c(OC)c2-c2ccc(SC)c(=O)cc21` [Compound 9], the IC50 in assay [1] (Mus musculus) is 116 ± 9 nM; in assay [2] (Homo sapiens) it was 12 ± 4 nM; in assay [3] (Homo sapiens), 11 ± 0.1 nM; in assay [4] (Homo sapiens), 72 ± 11 nM; in assay [5] (Homo sapiens, MCF7, 72 h) it was 27 ± 7 nM. Besides, the “RI (resistance index)” value in assay [4] was determined as 6.55. In assay [4], the “SI LoVo/DX” value is 1.61. In addition, the “SI MCF-7” value in assay [5] is listed as 4.30.
Consider `CCCCOC(=O)N[C@H]1CCc2c(Br)c(OC)c(OC)c(OC)c2-c2ccc(SC)c(=O)cc21` [Compound 11], for which the IC50 was determined as 146 ± 14 nM in assay [1] (Mus musculus); 95 ± 5 nM in assay [2] (Homo sapiens); 62 ± 13 nM in assay [3] (Homo sapiens); 91 ± 9 nM in assay [4] (Homo sapiens); 125 ± 14 nM in assay [5] (Homo sapiens, MCF7, 72 h). For the same compound, in assay [2], the “SI A549” value was 1.54. Further, the “SI LoVo” value in assay [3] was 2.35. In addition, the “SI LoVo/DX” value in assay [4] is 1.60. Also, the “SI MCF-7” value in assay [5] is 1.17.
As to `COc1c(Br)c2c(c(OC)c1OC)-c1ccc(SC)c(=O)cc1[C@@H](NC(=O)OC(C)C)CC2` [Compound 10], the IC50 is 173 ± 108 nM in assay [1] (Mus musculus); 89 ± 20 nM in assay [2] (Homo sapiens); 54 ± 17 nM in assay [3] (Homo sapiens); 89 ± 26 nM in assay [4] (Homo sapiens); 132 ± 17 nM in assay [5] (Homo sapiens, MCF7, 72 h). The “SI A549” value in assay [2] amounted to 1.94. Also, the “SI LoVo” value in assay [3] amounted to 3.20. Besides, in assay [4], the “SI LoVo/DX” value amounted to 1.94. The “SI MCF-7” value in assay [5] is recorded as 1.31.
Regarding `CCOC(=O)N[C@H]1CCc2c(Br)c(OC)c(OC)c(OC)c2-c2ccc(SC)c(=O)cc21` [Compound 7], the IC50 in assay [1] (Mus musculus) stood at 102 ± 63 nM; in assay [2] (Homo sapiens) it was 12 ± 4 nM; in assay [3] (Homo sapiens) it was 11 ± 4 nM; in assay [4] (Homo sapiens), 71 ± 10 nM; in assay [5] (Homo sapiens, MCF7, 72 h), 18 ± 2 nM. Further, in assay [4], the “RI (resistance index)” value is 6.45. Also, in assay [4], the “SI LoVo/DX” value worked out at 1.44. In assay [5], the “SI MCF-7” value came out at 5.67.
For `COc1cccc2c1C(=O)c1c(O)c3c(c(O)c1C2=O)C[C@@](O)(C(=O)CO)C[C@@H]3O[C@H]1C[C@H](N)[C@H](O)[C@H](C)O1` [Doxorubicin, reference compound], the IC50 in assay [1] (Mus musculus) stood at 166 ± 74 nM; in assay [2] (Homo sapiens, SRB, mean ± SD) it was 258 ± 44 nM; in assay [4] (Homo sapiens, SRB, mean ± SD), 4750 ± 990 nM.
For the compound `COc1c(Br)c2c(c(OC)c1OC)-c1ccc(SC)c(=O)cc1[C@@H](N)CC2` [Compound 4, 4-bromo-N-deacetylthiocolchicine], the IC50 in assay [1] (Mus musculus) turned out to be 1260 ± 796 nM; in assay [2] (Homo sapiens), 115 ± 7 nM; in assay [3] (Homo sapiens), 125 ± 44 nM; in assay [4] (Homo sapiens), 700 ± 88 nM; in assay [5] (Homo sapiens, MCF7, 72 h), 178 ± 20 nM. Besides, the “SI LoVo” value in assay [3] was found to be 10.08. Moreover, the “RI (resistance index)” value in assay [4] is listed as 5.60. In addition, the “SI LoVo/DX” value in assay [4] is listed as 1.80. In assay [5], the “SI MCF-7” value turned out to be 7.08.
On to `COC(=O)N[C@H]1CCc2c(Br)c(OC)c(OC)c(OC)c2-c2ccc(SC)c(=O)cc21` [Compound 6], for which the IC50 amounted to 66 ± 31 nM in assay [1] (Mus musculus), 10 ± 0.1 nM in assay [2] (Homo sapiens), 7 ± 2 nM in assay [3] (Homo sapiens) and 50 ± 10 nM in assay [4] (Homo sapiens).
`N.N.[Cl][Pt][Cl]` [Cisplatin, reference compound]: the IC50 in assay [1] was 3900 ± 1500 nM; in assay [2] (SRB, mean ± SD) it was 6370 ± 1410 nM; in assay [3] (SRB, mean ± SD), 4370 ± 730 nM; in assay [4] (SRB, mean ± SD), 5700 ± 630 nM; in assay [5] (MCF-7, 72 h, SRB, mean ± SD), 10700 ± 753 nM. Also, in assay [2], the “SI A549” value came to 0.61. The “SI LoVo” value in assay [3] is 0.89. Besides, the “RI (resistance index)” value in assay [4] turned out to be 1.3. Further, the “SI LoVo/DX” value in assay [4] is on record as 0.68. In addition, the “SI MCF-7” value in assay [5] is listed as 0.36.
On to `COc1c(Br)c2c(c(OC)c1OC)-c1ccc(SC)c(=O)cc1[C@@H](NC(=O)OCCOCCO)CC2` [Compound 12], for which the IC50 in assay [1] (Mus musculus) was found to be 135 ± 15 nM; in assay [2] (Homo sapiens) it was 93 ± 14 nM; in assay [3] (Homo sapiens) it was 281 ± 185 nM; in assay [4] (Homo sapiens), 4240 ± 1330 nM; in assay [5] (Homo sapiens, MCF7, 72 h) it was 125 ± 15 nM. Moreover, the “SI LoVo” value in assay [3] amounted to 0.48. In addition, in assay [4], the “RI (resistance index)” value was found to be 15.09. For the same compound, in assay [4], the “SI LoVo/DX” value is 0.03. Also, the “SI MCF-7” value in assay [5] is listed as 1.08.
Regarding `COc1c(Br)c2c(c(OC)c1OC)-c1ccc(SC)c(=O)cc1[C@@H](NC(C)=O)CC2` [Compound 3, 4-bromothiocolchicine], the IC50 stood at 103 ± 89 nM in assay [1] (Mus musculus); 10 ± 0.1 nM in assay [2] (Homo sapiens); 14 ± 4 nM in assay [3] (Homo sapiens); 135 ± 12 nM in assay [4] (Homo sapiens); 15 ± 2 nM in assay [5] (Homo sapiens, MCF7, 72 h). In assay [2], the “SI A549” value came to 10.3. In assay [3], the “SI LoVo” value came out at 7.36. In assay [4], the “RI (resistance index)” value stood at 9.64. The “SI LoVo/DX” value in assay [4] was found to be 0.76. In addition, in assay [5], the “SI MCF-7” value is on record as 6.87.
For the compound `COc1c(Br)c2c(c(OC)c1OC)-c1ccc(SC)c(=O)cc1[C@@H](NC(=O)OCCO)CC2` [Compound 5], the IC50 was 104 ± 43 nM in assay [1] (Mus musculus); 74 ± 9 nM in assay [2] (Homo sapiens); 74 ± 19 nM in assay [3] (Homo sapiens); 1010 ± 20 nM in assay [4] (Homo sapiens); 57 ± 11 nM in assay [5] (Homo sapiens, MCF7, 72 h). Besides, the “SI A549” value in assay [2] is 1.41. In addition, the “SI LoVo” value in assay [3] was 1.41. For the same compound, the “RI (resistance index)” value in assay [4] amounted to 13.65. For the same compound, the “SI LoVo/DX” value in assay [4] was 0.10. For the same compound, in assay [5], the “SI MCF-7” value turned out to be 1.82.
With `COc1c(Br)c2c(c(OC)c1OC)-c1ccc(SC)c(=O)cc1[C@@H](NC(=O)OCC(F)(F)F)CC2` [Compound 8], the IC50 in assay [1] (Mus musculus) was 138 ± 10 nM; in assay [2] (Homo sapiens), 30 ± 21 nM; in assay [3] (Homo sapiens), 18 ± 10 nM; in assay [4] (Homo sapiens), 74 ± 7 nM; in assay [5] (Homo sapiens, MCF7, 72 h), 55 ± 26 nM. Besides, the “RI (resistance index)” value in assay [4] is listed as 4.11. For the same compound, the “SI LoVo/DX” value in assay [4] was determined as 1.86. Also, the “SI MCF-7” value in assay [5] is on record as 2.51.
For `COc1c(Br)c2c(c(OC)c1OC)-c1ccc(OC)c(=O)cc1[C@@H](NC(C)=O)CC2` [Compound 2, 4-bromocolchicine], the IC50 came out at 142 ± 73 nM in assay [1] (Mus musculus); 105 ± 8 nM in assay [2] (Homo sapiens); 84 ± 21 nM in assay [3] (Homo sapiens); 1550 ± 170 nM in assay [4] (Homo sapiens); 27 ± 8 nM in assay [5] (Homo sapiens, MCF7, 72 h). The “SI A549” value in assay [2] was found to be 1.35. The “SI LoVo” value in assay [3] worked out at 1.69. For the same compound, the “RI (resistance index)” value in assay [4] was 18.45. Further, the “SI LoVo/DX” value in assay [4] worked out at 0.09. Besides, in assay [5], the “SI MCF-7” value was 5.26.
